Reference: patent publication US5496703A, “Indirect immunoassay for dioxinlike compounds” (priority 1993, dated 1996)
“Also recorded” adds a separate entry of the source.

Columns and labels:
cytochrome P-450IA1 = assay: Ethoxyresorufin O-deethylase assay (EROD), hepatic S-9, mice dosed i.p.; type: in vivo, C57BL/6 mice; conditions: hepatic S-9, i.p., 24 hours after dosing
Protocol: Female, C57BL/6 mice (or any cytochrome P-450IA1 inducible strain) were obtained from Harton Sprague Dawley (Indianapolis, Ind.). Experiments were performed using four to six week old, female mice weighing approximately 16 to 20 g. Mice were fed Prolab RMH 1000 rat, mouse and hamster food (Agway, Cortland, N.Y.) and received tap water ad libitum. All mice were housed three to five per cage and maintained on a photoperiod of 12 hours. Mice were killed 24 hours following an intraperitoneal injection of either corn oil alone or TCDD (Analabs) at 0.25, 0.5, 1, 2, 4, 10, 50 μg/kg, the volume of the injections ranged from 0.1 to 0.2 ml per mouse. […]
Resorufin (hydroxyphenoxazone) and ethoxyresorufin was purchased from Molecular Probes (Junction City, Oreg.). EROD was measured by following the increase in fluorescence due to the formation of resorufin by dealkylation of its ethoxy derivative. […] A baseline of fluorescence was recorded at an excitation wavelength of 530 nm and an emission wavelength of 585 nm. The reaction was started with the addition of NADPH and the dealkylation of the derivative to resorufin was followed by a progressive increase in fluorescence as resorufin was generated. Recordings were standardized by measuring the fluorescence of freshly generated resorufin from resorufin acetate (Sigma, St. Louis, Mo.) prior to each assay. […]

[1] = system: protein tyrosylphosphorylation in X3 human lymphoblastoma cells; assay: Immunoblot / densitometry of X3 cell lysate phosphotyrosyl proteins; type: cell-based
Protocol: The indicated densitometric measurements were made on a BioImage AK Kodak Visage 110.
The X3 human lymphoblastoma cells (Genetest, Wolburn, Mass.) were grown in 75 cm^2 T-flasks in RPMI 1640 medium (Gibco) containing 9% horse serum. Any cell or cell line expressing cytochrome P-450IA1 may be used. The cells were cultured at 37° C. in a 5% CO2 (balance air) environment. Cells were subcultured by centrifuging (1000 rpm, 3 minutes) and resuspended in fresh media to a volume of 50 mL (at a cell density of 1.0×10^6 cells/mL). The TCDD-corn oil solution was homogenized with serum to a final concentration of 0.10 μg/mL. The TCDD-serum was added at concentrations of 0, 0.02, 0.05, 0.1, 0.5 and 1.0 nM per flask and incubated for 16 hours. After the appropriate incubation time, the cells were harvested by centrifugation and washed three times (PBS, […]). A final cell count was then determined.
The separation of cell lysate proteins by means of SDS PAGE was performed by mixing the cell lysate 1:1 with a double strength sodium dodecyl sulfate sample buffer and heating the solution at 100° C. for 3 minutes prior to one-dimensional SDS polyacrylamide gel electrophoresis with 10% polyacrylamide. After electrophoresis, a Milliblot SDE electroblot apparatus (Millipore, Bedford, Mass.) was used to transfer the proteins from the polyacrylamide gels to an Immobilon™ membrane filter (Millipore). Complete transfers were accomplished in 25-30 min at 500 mA and were assessed by tracking pre-stained molecular weight standards onto the membrane filter. Membrane filters were blocked by incubating in TBS (Tris buffered saline) containing 5% milk for 30 minutes at 37° C. The membranes were then washed in TBST (TBS with 0.05% Tween 20) and incubated overnight with antiphoshphotyrosine monoclonal antibody (1.5 μg/mL) in TBST. The primary antibody was removed, and the membranes were washed four times in TBST. To visualize the antibody reaction, the membranes were incubated for 3 hours at 37° C. with alkaline phosphatase-conjugated antimouse IgG diluted 1:1000 in TBST, washed 3 times in TBST, and developed for 15 to 30 minutes. Determination of molecular weights of immuno-stained proteins was performed by adding molecular weight standards (Bio Rad) to reference lanes and staining the membrane filters with amido black.
An estimate of the limit of detection of dioxinlike activity can be made using the 0.2 nM dose as the minimally effective dose. At this level of administration the 57 kDalton band becomes easily visible. Assuming a 100 μL incubation well (e.g., in a 96 well microtiter plate), the diethyl ether extract would have to contain approximately 37.5 pg of dioxin equivalents to initiate a tyrosylphosphorylation of the 57 kDalton protein. This amount would be present in the extract of a 2 g sample containing 20 parts per trillion of dioxin equivalents. If the 33 kDalton protein were used to quantitate the dioxinlike activity, the limit of detection based upon a response at the EC50 of 0.04 nM, would be approximately 4 ppt. Since it is generally believed that an action concentration of dioxin is 50 ppt and current instrumental methods detect approximately 3.5 ppt, this level of analysis is sufficient for initial regulatory or health considerations.

Ah receptor = conditions: C57BL/6J mouse; cited from earlier work
[2] = system: cytochrome P-450IA1 aryl hydrocarbon hydroxylase; conditions: 3 days post-injection (Poland et al. 1974); cited from earlier work
rodents = conditions: guinea pig to hamster; cited from earlier work
C57BL/6J mouse strain = conditions: cited from earlier work
phospholipase C = conditions: certain cell lines; cited from earlier work

SMILES: Clc1cc2c(cc1Cl)Oc1cc(Cl)c(Cl)cc1O2 [TCDD, 2,3,7,8-tetrachlorodibenzo-p-dioxin]
- ED50, cytochrome P-450IA1 expression (EROD) (cytochrome P-450IA1): 5 μg TCDD/kg
- dose of maximal EROD activity (cytochrome P-450IA1): 50 μg TCDD/kg
- minimal effective concentration ([1]; Homo sapiens, 16 h, limit-of-detection estimate, read-out: minimally effective dose (57 kDalton band easily visible)): 0.0002 µM
- EC50 ([1]; Homo sapiens, densitometry of immunoblot, 16 hours, read-out: EC50, 33 kDalton protein tyrosylphosphorylation): 0.04 nM
- concentration of maximal 33 kDalton protein tyrosylphosphorylation ([1]; densitometry of immunoblot, 16 hours): 0.1 nM
- pTP at 57 kDaltons ([1]; immunoblot): highly phosphorylated at tyrosine residues; also recorded: appeared in all X3 cells treated with TCDD
- pTP at 110 kDaltons ([1]; immunoblot): decreased with increasing TCDD concentration; also recorded: decreased in intensity
- hepatic level of Ah receptor capable of binding TCDD (Ah receptor): 40-120 fmol/mg of protein
- published ED50, induction of aryl hydrocarbon hydroxylase specific activity [2]: approximately 3 μg/kg
- range of LD50 among rodents (rodents): ≥ 2500 fold
- susceptibility to TCDD-induced toxicity (C57BL/6J mouse strain): very susceptible
- phospholipase C activation (phospholipase C): activates protein kinase C in certain cell lines but also phospholipase C
